{
  "source": "patent US20030215462A1",
  "about": "“Use of UGT inhibitors to increase bioavailability” (priority 2001, published 2003)",
  "key": {"[1]": {"tested_on": "T1, UGT enzymes of human liver microsomes", "T1 construct": "percentage of control metabolism, 7-HFC glucuronidation; percentage of control metabolism, 7-HFC glucuronidation", "assay": "Kinetic and Ki studies of inhibitors of 7-HFC glucuronidation in human liver microsomes", "format": "biochemical", "conditions": "7-HFC 20-500 μM"}, "[2]": {"target": "T2, UGT enzymes of human liver microsomes (Homo sapiens, UniProt P16662)", "T2 construct": "residual metabolism (percentage of control), zidovudine glucuronidation; other: liver lot 062101; residual metabolism (percentage of control), zidovudine glucuronidation; residual metabolism (percentage of control)", "T2 sequence (P16662 1-529)": "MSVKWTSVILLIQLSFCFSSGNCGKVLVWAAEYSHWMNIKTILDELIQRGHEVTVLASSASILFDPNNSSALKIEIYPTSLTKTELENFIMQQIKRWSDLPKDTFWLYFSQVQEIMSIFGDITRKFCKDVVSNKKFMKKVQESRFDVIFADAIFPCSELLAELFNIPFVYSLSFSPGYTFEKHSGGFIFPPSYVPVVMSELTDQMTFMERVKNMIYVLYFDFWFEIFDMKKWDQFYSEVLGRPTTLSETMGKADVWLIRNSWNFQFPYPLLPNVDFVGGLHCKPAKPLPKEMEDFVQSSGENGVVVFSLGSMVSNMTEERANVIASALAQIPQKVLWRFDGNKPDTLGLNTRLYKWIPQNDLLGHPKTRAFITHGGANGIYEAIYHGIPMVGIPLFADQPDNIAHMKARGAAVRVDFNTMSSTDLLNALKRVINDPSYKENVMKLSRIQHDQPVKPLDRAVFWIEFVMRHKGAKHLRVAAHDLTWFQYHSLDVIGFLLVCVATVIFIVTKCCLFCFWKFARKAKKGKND", "assay": "Inhibition of zidovudine glucuronidation in human liver microsomes", "format": "biochemical", "conditions": "liver lot 062101", "description": "Compounds were eluted using a binary solvent gradient system where solvent A was dilute phosphoric acid (pH 3) and solvent B was acetonitrile.\nStandardized incubations utilized 500 μM zidovudine substrate, 1 mg/ml microsomal protein, 5 mM UDPGA and a 30 min incubation time. […] Int."}, "[3]": {"tested_on": "T3, UGT enzymes of human liver microsomes", "T3 construct": "residual metabolism (percentage of control), labetalol LG1; other: labetalol 50 μM; residual metabolism (percentage of control), labetalol LG1; residual metabolism (percentage of control), labetalol LG2; inhi", "assay": "Inhibition of labetalol glucuronidation (LG1, LG2) in human liver microsomes", "format": "biochemical", "conditions": "labetalol 50 μM; inhibitor 100 μM"}, "[4]": {"tested_on": "T4, UGT enzymes of human liver microsomes", "T4 construct": "other: liver 062101", "assay": "Inhibition of 2ME2 glucuronidation (MG1, MG2) in human liver microsomes", "format": "biochemical", "conditions": "liver 062101, 2ME2 50 μM", "from_the_text": "Compounds were eluted using a binary solvent gradient system where solvent A was dilute phosphoric acid (pH 3) and solvent B was 80:20 acetonitrile-methanol. […] Detection was at 280 nm."}, "UGT1A1": {"target": "T5, UGT1A1 (Homo sapiens, UniProt P22309)", "T5 sequence (P22309 26-533)": "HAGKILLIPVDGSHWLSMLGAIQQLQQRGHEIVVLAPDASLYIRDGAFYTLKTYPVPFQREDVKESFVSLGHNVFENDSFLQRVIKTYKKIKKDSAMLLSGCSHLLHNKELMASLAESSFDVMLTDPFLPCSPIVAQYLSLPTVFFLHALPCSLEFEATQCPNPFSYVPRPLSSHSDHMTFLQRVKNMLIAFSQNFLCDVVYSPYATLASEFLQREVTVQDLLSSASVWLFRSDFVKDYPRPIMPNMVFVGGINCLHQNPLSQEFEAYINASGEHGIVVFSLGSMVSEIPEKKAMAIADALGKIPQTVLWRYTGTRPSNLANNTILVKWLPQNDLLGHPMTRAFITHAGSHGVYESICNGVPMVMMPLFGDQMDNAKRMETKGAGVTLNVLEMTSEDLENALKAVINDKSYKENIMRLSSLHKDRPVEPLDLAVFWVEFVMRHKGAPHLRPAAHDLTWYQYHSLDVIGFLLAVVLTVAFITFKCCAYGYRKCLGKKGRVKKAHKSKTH", "assay": "Inhibition of raloxifene glucuronidation by recombinant UGT1A1 Supersomes", "conditions": "for Inhibition of raloxifene glucuronidation, G1, UGT1A1 / Inhibition of raloxifene glucuronidation, G2, UGT1A1: raloxifene 50 μM, 250 μg/ml Supersomes, 1 mM UDPGA, 15 min; for % of control metabolism, raloxifene G1 / % of control metabolism, raloxifene G2: UGT1A1", "protocol": "(§1) Compounds were eluted using a binary solvent gradient system. Solvent A was water brought to pH 8 with NH4OH. Solvent B was methanol. Solvent flow rate was 1 ml/min and the column temperature was maintained at 50° C. Detection was at 280 nm. […] The system was then returned to the initial conditions and equilibrated for 3 min."}, "UGT1A8": {"target": "T6, UGT1A8 (Homo sapiens, UniProt Q9HAW9)", "T6 sequence (Q9HAW9 26-530)": "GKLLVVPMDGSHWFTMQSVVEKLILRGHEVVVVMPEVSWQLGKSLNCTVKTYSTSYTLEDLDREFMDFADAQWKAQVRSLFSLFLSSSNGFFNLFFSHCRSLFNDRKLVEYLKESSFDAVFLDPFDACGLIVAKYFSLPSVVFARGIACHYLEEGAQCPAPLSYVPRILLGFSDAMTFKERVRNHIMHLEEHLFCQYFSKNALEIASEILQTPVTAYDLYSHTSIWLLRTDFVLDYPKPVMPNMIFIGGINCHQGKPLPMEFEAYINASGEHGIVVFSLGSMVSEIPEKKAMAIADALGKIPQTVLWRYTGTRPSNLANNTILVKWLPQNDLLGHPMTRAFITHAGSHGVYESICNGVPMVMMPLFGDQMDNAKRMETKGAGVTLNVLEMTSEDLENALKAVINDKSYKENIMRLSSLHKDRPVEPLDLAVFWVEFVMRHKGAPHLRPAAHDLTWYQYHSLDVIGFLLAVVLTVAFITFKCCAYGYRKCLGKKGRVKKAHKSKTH", "assay": "Inhibition of raloxifene glucuronidation by recombinant UGT1A8 Supersomes", "conditions": "UGT1A8; inhibitor 50 μM", "protocol": "as §1"}, "[5]": {"conditions": "inhibitor column headed only \"μM\" (between 25 μM and 5 μM)"}},
  "data": [
    {"smiles": "O=C(O[C@@H]1Cc2c(O)cc(O)cc2O[C@@H]1c1cc(O)c(O)c(O)c1)c1cc(O)c(O)c(O)c1", "note": "[Epigallocatechin gallate]", "values": [
      {"measurement": "Vmax of 7-HFC glucuronidation (fit of the experiment with this inhibitor)", "setting": "[1]", "result": "54 ± 3", "unit": "nmol/min/mg"},
      {"measurement": "Km", "setting": "[1]; read-out: Km of 7-HFC glucuronidation (fit of the experiment with this inhibitor)", "result": "75 ± 7", "unit": "µM"},
      {"measurement": "residual metabolism (percentage of control), zidovudine glucuronidation", "setting": "[2]; inhibitor 50 μM", "result": "70 (1) %"},
      {"measurement": "residual metabolism (percentage of control), zidovudine glucuronidation", "setting": "[2]; inhibitor 100 μM", "result": "60 (2) %"},
      {"measurement": "residual metabolism (percentage of control), zidovudine glucuronidation", "setting": "[2]; inhibitor 200 μM", "result": "39 (2) %"},
      {"measurement": "residual metabolism (percentage of control), zidovudine glucuronidation", "setting": "[2]; inhibitor 500 μM", "result": "18 (1) %"},
      {"measurement": "residual metabolism (percentage of control), labetalol LG1", "setting": "[3]", "result": "55 (2) %"},
      {"measurement": "residual metabolism (percentage of control), labetalol LG2", "setting": "[3]", "result": "52 (5) %"},
      {"measurement": "residual metabolism (% of control), 2ME2 MG1", "setting": "[4]; inhibitor 25 μM", "result": "61 (1) %"},
      {"measurement": "residual metabolism (% of control), 2ME2 MG2", "setting": "[4]; inhibitor 25 μM", "result": "79 (0) %"},
      {"measurement": "residual metabolism (% of control), 2ME2 MG1", "setting": "[4]; inhibitor 50 μM", "result": "48 (2) %"},
      {"measurement": "residual metabolism (% of control), 2ME2 MG2", "setting": "[4]; inhibitor 50 μM", "result": "71 (1) %"},
      {"measurement": "residual metabolism (% of control), 2ME2 MG1", "setting": "[4]; inhibitor 100 μM", "result": "29 (1) %"},
      {"measurement": "residual metabolism (% of control), 2ME2 MG2", "setting": "[4]; inhibitor 100 μM", "result": "35 (1) %"},
      {"measurement": "Inhibition of raloxifene glucuronidation, G1, UGT1A1", "setting": "UGT1A1; inhibitor 25 μM", "result": "44 (1)"},
      {"measurement": "Inhibition of raloxifene glucuronidation, G1, UGT1A1", "setting": "UGT1A1; inhibitor 50 μM", "result": "21 (0)"},
      {"measurement": "Inhibition of raloxifene glucuronidation, G1, UGT1A1", "setting": "UGT1A1; [5]", "result": "70 (1)"},
      {"measurement": "Inhibition of raloxifene glucuronidation, G2, UGT1A1", "setting": "UGT1A1; inhibitor 25 μM", "result": "45 (1)"},
      {"measurement": "Inhibition of raloxifene glucuronidation, G2, UGT1A1", "setting": "UGT1A1; inhibitor 50 μM", "result": "25 (1)"},
      {"measurement": "Inhibition of raloxifene glucuronidation, G2, UGT1A1", "setting": "UGT1A1; [5]", "result": "74 (2)"},
      {"measurement": "% of control metabolism, raloxifene G1", "setting": "UGT1A1; inhibitor 25 μM", "result": "44 (1) %"},
      {"measurement": "% of control metabolism, raloxifene G2", "setting": "UGT1A1; inhibitor 25 μM", "result": "45 (1) %"},
      {"measurement": "% of control metabolism, raloxifene G1", "setting": "UGT1A1; inhibitor 50 μM", "result": "21 (0) %"},
      {"measurement": "% of control metabolism, raloxifene G2", "setting": "UGT1A1; inhibitor 50 μM", "result": "25 (1) %"},
      {"measurement": "% of control metabolism, raloxifene G1", "setting": "UGT1A8", "result": "69 (3) %"},
      {"measurement": "% of control metabolism, raloxifene G2", "setting": "UGT1A8", "result": "54 (2) %"}
    ]}
  ]
}
